US4428936A, “Antibacterial composition for medical use” (Toyama Chemical Co., Ltd., priority 1978, dated 1984)

Experiments:
[1] = tested on: K. pneumoniae Y-4; test: Effect of combined use on experimental infection in mice (protection); assay type: in vivo, mice (ICR strain) infected with K. pneumoniae; details: challenge dose 5.7 × 10^7 cells/mouse, peritoneal; subcutaneous administration one and two hours after inoculation
Text: (§1) Male mice (5 mice per group) of the ICR strain, 4 weeks of age, were peritoneally inoculated with the prescribed number of pathogenic bacteria suspended in 5% mucin. After one hour and two hours following the inoculation, test preparations shown in Table 5 were subcuataneously administered to examine the protection effect.

[2] = tested on: K. pneumoniae Y-53; test: as above; assay type: in vivo, mice (ICR strain) infected with K. pneumoniae; details: challenge dose 1.0 × 10^7 cells/mouse, peritoneal; subcutaneous administration one and two hours after inoculation
Text: as §1

[3] = tested on: Escherichia coli TK-3; test: Growth-inhibition test on clinically isolated strain (agar, about 10^8 cells/ml); assay type: cell-based; parameters: key: (+) means that the test bacterium grew; (-) means that the test bacterium did not grow; details: T-1551 Na 0 μg/ml; Methicillin sodium alone by line b32-b40: 3200,1600,800,400,200,100,50,25,12.5 μg/ml; 18 hours, 37° C
Experimental: (§2) Heart Infusion agar containing a prescribed amount of Methicillin sodium or T-1551 Na was inoculated with the test bacterium at a rate of about 10^8 cells/ml. After incubation for 18 hours at 37° C., the growth of the test bacterium was inspected.

[4] = tested on: Klebsiella pneumoniae Y-4; test: as above; assay type: cell-based; parameters: key: (+) means that the test bacterium grew; (-) means that the test bacterium did not grow; details: T-1551 Na 0 μg/ml; Methicillin sodium alone by line b62-b70: 3200,1600,800,400,200,100,50,25,12.5 μg/ml; 18 hours, 37° C
Experimental: as §2

[5] = tested on: Pseudomonas aeruginosa S-111; test: as above; assay type: cell-based; parameters: key: (+) means that the test bacterium grew; (-) means that the test bacterium did not grow; details: T-1551 Na 0 μg/ml; Methicillin sodium alone by line b92-b100: 3200,1600,800,400,200,100,50,25,12.5 μg/ml; 18 hours, 37° C
Experimental: as §2

[6] = tested on: Escherichia coli TK-3; test: Minimum inhibitory concentration; assay type: cell-based; details: TK3; Escherichia coli TK-3 strain
Experimental: (§3) The minimum inhibitory concentration of T-1551 Na or Methicillin sodium against Escherichia coli TK-3 strain or Kleosiella pneumoniae Y-4 strain was greater than 800 μg/ml in each case.

[7] = tested on: Klebsiella pneumoniae Y-4; test: Minimum inhibitory concentration; assay type: cell-based; details: Y4; Klebsiella pneumoniae Y-4 strain
Experimental: as §3

[8] = tested on: Klebsiella pneumoniae GN 69; test: Growth-inhibition test with potassium clavulanate; assay type: cell-based; parameters: key: (+) means that the test bacterium grew; (-) means that the test bacterium did not grow; details: T-1551 Na 0 μg/ml; potassium clavulanate alone by line b195,b197-b205: 100,(unlabelled),25,(unlabelled),6.25,(unlabelled),1.6,(unlabelled),0.4,(unlabelled) μg/ml
Experimental: as §2
(§4) The same operation as in Test Example 1 was repeated, except that the Methicillin sodium was replaced by potassium clavulanate and the test bacteria were replaced by those shown in Tables 6, 7 and 8, to obtain the results shown in Tables 6, 7 and 8.

[9] = tested on: Escherichia coli GN 6299; test: Growth-inhibition test with potassium clavulanate; assay type: cell-based; parameters: key: (+) means that the test bacterium grew; (-) means that the test bacterium did not grow; details: T-1551 Na 0 μg/ml; potassium clavulanate alone by line b171,b173-b181: 100,(unlabelled),25,(unlabelled),6.25,(unlabelled),1.6,(unlabelled),0.4,(unlabelled) μg/ml
Experimental: as §2, §4

[10] = tested on: Pseudomonas aeruginosa GN 3345; test: Growth-inhibition test with potassium clavulanate; assay type: cell-based; parameters: key: (+) means that the test bacterium grew; (-) means that the test bacterium did not grow; details: T-1551 Na 0 μg/ml; potassium clavulanate alone by line b219-b228: 100,(unlabelled),25,(unlabelled),12.5,(unlabelled),3.1,(unlabelled),0.4,(unlabelled) μg/ml
Experimental: as §2, §4

MIC [6] | MIC [7] | SMILES | ED50 (protection effect) [1] | ED50 (protection effect) [2] | growth of the test bacterium [3] | growth of the test bacterium [4] | growth of the test bacterium [5] | growth of the test bacterium [8] | growth of the test bacterium [9] | growth of the test bacterium [10]
> 800 µg/mL | > 800 µg/mL | COc1cccc(OC)c1C(=O)N[C@@H]1C(=O)N2[C@@H]1SC(C)(C)[C@@H]2C(=O)O [Methicillin sodium, reference compound] | > 50 mg/mouse | > 46.6 mg/mouse | + | + | + | – | – | –
– | – | O=C(O)[C@H]1/C(=C/CO)O[C@@H]2CC(=O)N21 [Potassium clavulanate, potassium clavulanate, reference compound] | – | – | – | – | – | - and + | - and + | +
